Measurements as given in patent US20110086759A1, “CHEMICAL COMPOUNDS” (SYNGENTA CROP PROTECTION, INC., priority 2007, published 2011).

Key:
Assay type in all cases: in vivo
[1] = tested on: Alopecurus myosuroides (ALOMY); assay: Pre-emergence biological efficacy, glasshouse pot test; conditions: 312 h, pre-emergence, 1,000 g/ha, evaluated after 13 days (100=total damage; 0=no damage), read-out: Percentage damage ALOMY
Summary of the method: (§1)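 Scores on a 0–100 damage scale were taken 13 days after spraying. Application rate 1000 or 250 g/ha, one day after sowing, in acetone/water-based aqueous spray containing 0.5% Tween 20.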

[2] = tested on: Amaranthus retoflexus (AMARE); assay: as above; conditions: Amaranthus retroflexus, 312 h; pre-emergence, 1,000 g/ha, evaluated after 13 days (100=total damage; 0=no damage); read-out: Percentage damage AMARE
Summary of the method: as §1

[3] = tested on: Echinochloa crus-galli (ECHCG); assay: as above; conditions: 312 h, pre-emergence, 1,000 g/ha, evaluated after 13 days (100=total damage; 0=no damage), read-out: Percentage damage ECHCG
Summary of the method: as §1

[4] = tested on: Ipomea hederaceae (IPOHE); assay: as above; conditions: Ipomoea hederacea, 312 h; pre-emergence, 1,000 g/ha, evaluated after 13 days (100=total damage; 0=no damage); read-out: Percentage damage IPOHE
Summary of the method: as §1

Setaria faberi (SETFA) [5] = assay: as above; conditions: 312 h, pre-emergence, 1,000 g/ha, evaluated after 13 days (100=total damage; 0=no damage), read-out: Percentage damage SETFA
Summary of the method: as §1

Solanum nigrum (SOLNI) [6] = assay: as above; conditions: 312 h, pre-emergence, 1,000 g/ha, evaluated after 13 days (100=total damage; 0=no damage), read-out: Percentage damage SOLNI
Summary of the method: as §1

[7] = tested on: Alopecurus myosuroides (ALOMY); assay: Post-emergence biological efficacy, glasshouse pot test; conditions: 312 h, post-emergence, 1,000 g/ha, evaluated after 13 days (100=total damage; 0=no damage), read-out: Percentage damage caused to weed species, ALOMY
Summary of the method: (§2)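 Scored 13 days after spraying on a 0 (no damage) to 100 (total damage) scale. Treatment was a post-emergence spray at 1000 or 250 g/ha, from acetone/water 50:50 plus 0.5% Tween 20, onto 8-day-old plants in soil pots. Growth at 24/16° C, 14 h photoperiod, 65% humidity, watered twice daily.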

[8] = tested on: Amaranthus retoflexus (AMARE); assay: as above; conditions: Amaranthus retroflexus, 312 h; post-emergence, 1,000 g/ha, evaluated after 13 days (100=total damage; 0=no damage); read-out: Percentage damage caused to weed species, AMARE
Summary of the method: as §2

[9] = tested on: Echinochloa crus-galli (ECHCG); assay: as above; conditions: 312 h, post-emergence, 1,000 g/ha, evaluated after 13 days (100=total damage; 0=no damage), read-out: Percentage damage caused to weed species, ECHCG
Summary of the method: as §2

[10] = tested on: Ipomea hederaceae (IPOHE); assay: as above; conditions: Ipomoea hederacea, 312 h; post-emergence, 1,000 g/ha, evaluated after 13 days (100=total damage; 0=no damage); read-out: Percentage damage caused to weed species, IPOHE
Summary of the method: as §2

Setaria faberi (SETFA) [11] = assay: as above; conditions: 312 h, post-emergence, 1,000 g/ha, evaluated after 13 days (100=total damage; 0=no damage), read-out: Percentage damage caused to weed species, SETFA
Summary of the method: as §2

Solanum nigrum (SOLNI) [12] = assay: as above; conditions: 312 h, post-emergence, 1,000 g/ha, evaluated after 13 days (100=total damage; 0=no damage), read-out: Percentage damage caused to weed species, SOLNI
Summary of the method: as §2

| Structure (SMILES) | pest or weed control at 1000 g/ha [1] | pest or weed control at 1000 g/ha [2] | pest or weed control at 1000 g/ha [3] | pest or weed control at 1000 g/ha [4] | pest or weed control at 1000 g/ha (Setaria faberi (SETFA) [5]) | pest or weed control at 1000 g/ha (Solanum nigrum (SOLNI) [6]) | pest or weed control at 1000 g/ha [7] | pest or weed control at 1000 g/ha [8] | pest or weed control at 1000 g/ha [9] | pest or weed control at 1000 g/ha [10] | pest or weed control at 1000 g/ha (Setaria faberi (SETFA) [11]) | pest or weed control at 1000 g/ha (Solanum nigrum (SOLNI) [12]) |
| --- | --- | --- | --- | --- | --- | --- | --- | --- | --- | --- | --- | --- |
| COC(=O)c1nc(C2CC2)nc(NCCC2OCCO2)c1Cl [Compound 4-216, 5-Chloro-2-cyclopropyl-4-[2-(1,3-dioxolan-2-yl)ethylamino]-6-methoxycarbonyl-pyrimidine] | 30% | 100% | 40% | 100% | 40% | 90% | 20% | 100% | 20% | 80% | 60% | 70% |
| COC(=O)c1nc(C2CC2)nc(NCCN2CCNC2=O)c1Cl [Compound 4-219, 5-Chloro-2-cyclopropyl-6-methoxycarbonyl-4-[2-(2-oxo-imidazolidin-1-yl)ethylamino]-pyrimidine] | 0% | 60% | 0% | 90% | 0% | 30% | 0% | 50% | 0% | 50% | 10% | 50% |
| COC(=O)c1nc(C2CC2)nc(NCCN2CCOCC2)c1Cl [Compound 4-220, 5-Chloro-2-cyclopropyl-6-methoxycarbonyl-4-[2-(morpholin-4-yl)ethylamino]-pyrimidine] | 0% | 60% | 30% | 50% | 0% | 40% | 20% | 100% | 30% | 100% | 40% | 90% |
| COC(=O)c1nc(C2CC2)nc(NCCc2ccccc2)c1Cl [Compound 4-221, 5-Chloro-2-cyclopropyl-6-methoxycarbonyl-4-(2-phenylethyl-amino)-pyrimidine] | 60% | 100% | 60% | 100% | 60% | 90% | 30% | 100% | 40% | 100% | 70% | 80% |
| COC(=O)c1nc(C2CC2)nc(NCCc2ccc(S(N)(=O)=O)cc2)c1Cl [Compound 4-222, 4-[2-(4-Amino-sulphonylphenyl)-ethylamino]-5-chloro-2-cyclo-propyl-6-methoxy-carbonylpyrimidine] | 0% | 30% | 0% | 10% | 0% | 0% | 0% | 30% | 0% | 60% | 0% | 20% |
| COC(=O)c1nc(C2CC2)nc(NCCc2cccs2)c1Cl [Compound 4-224, 5-Chloro-2-cyclopropyl-6-methoxycarbonyl-4-[2-(thiophen-2-yl)ethylamino]-pyrimidine] | 0% | 20% | 0% | 70% | 0% | 30% | 10% | 100% | 10% | 50% | 30% | 70% |
| COC(=O)c1nc(C2CC2)nc(NCCc2c[nH]c3ccccc23)c1Cl [Compound 4-226, 5-Chloro-2-cyclopropyl-4-[2-(indol-3-yl)ethylamino]-6-methoxycarbonyl-pyrimidine] | 0% | 70% | 10% | 100% | 0% | 60% | 30% | 100% | 10% | 60% | 50% | 80% |
| COC(=O)c1nc(C2CC2)nc(NCCc2c[nH]c3ccc(OC)cc23)c1Cl [Compound 4-227, 5-Chloro-2-cyclopropyl-6-methoxycarbonyl-4-[2-(5-methoxyindol-3-yl)-ethylamino]-pyrimidine] | 0% | 20% | 0% | 50% | 0% | 30% | 10% | 70% | 30% | 70% | 40% | 80% |
| COC(=O)c1nc(C2CC2)nc(NCCc2ccccn2)c1Cl [Compound 4-228, 5-Chloro-2-cyclopropyl-6-methoxycarbonyl-4-[2-(pyrid-2-yl)ethylamino]-pyrimidine] | 0% | 70% | 0% | 40% | 0% | 40% | 10% | 90% | 40% | 70% | 50% | 80% |
| COC(=O)c1nc(C2CC2)nc(NCCc2cc(C(F)(F)F)cc(Cl)n2)c1Cl [Compound 4-229, 5-Chloro-4-[2-(6-chloro-4-trifluoromethyl-pyrid-2-yl)ethylamino]-2-cyclopropyl-6-methoxycarbonyl-pyrimidine] | 0% | 30% | 0% | 20% | 10% | 20% | 10% | 100% | 20% | 60% | 70% | 90% |
| COC(=O)c1nc(C2CC2)nc(NC(C)CC2CCCC2)c1Cl (stereo not drawn) [Compound 4-230, 5-Chloro-4-(2-cyclopentyl-1-methyl-ethylamino)-2-cyclopropyl-6-methoxycarbonyl-pyrimidine] | 0% | 10% | 0% | 40% | 0% | 0% | 0% | 40% | 0% | 40% | 0% | 40% |
